Measurements from publication PMC10149896 (Acta Pharmaceutica Sinica. B, 2022).

What was measured:
UGT71E5 = target: T1, UGT71E5 (Carthamus tinctorius, UniProt A0A1P8C3B1); test: HPLC-MS conversion; type: biochemical; conditions: 0.4 mmol/L acceptor, 0.8 mmol/L UDP-Glc, pH 7.4
T1 sequence (A0A1P8C3B1 1-480): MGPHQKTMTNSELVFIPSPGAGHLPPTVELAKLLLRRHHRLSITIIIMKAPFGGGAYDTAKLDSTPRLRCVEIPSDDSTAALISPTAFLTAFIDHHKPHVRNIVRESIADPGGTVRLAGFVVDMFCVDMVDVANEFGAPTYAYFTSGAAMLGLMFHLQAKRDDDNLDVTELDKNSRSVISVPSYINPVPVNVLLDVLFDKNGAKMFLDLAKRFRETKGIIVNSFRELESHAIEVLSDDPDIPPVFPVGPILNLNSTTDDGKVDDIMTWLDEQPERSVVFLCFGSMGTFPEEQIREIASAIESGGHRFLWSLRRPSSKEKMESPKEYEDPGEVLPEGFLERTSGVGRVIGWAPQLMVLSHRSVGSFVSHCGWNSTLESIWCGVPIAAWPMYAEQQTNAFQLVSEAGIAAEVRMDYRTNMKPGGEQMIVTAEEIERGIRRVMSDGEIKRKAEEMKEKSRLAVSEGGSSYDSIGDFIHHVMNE

DoBBS8 = test: HPLC quantification of dihydroresveratrol, nonlinear regression; type: biochemical, Dendrobium officinale; conditions: malonyl-CoA 2.0 mmol/L fixed; 30 °C, 30 min

Km (DoBBS8)	SMILES	conversion rate (UGT71E5)
–	Oc1ccc(CCc2cc(O)cc(O)c2)cc1 [compound 1, dihydro-resveratrol]	94%
61.8 µM	CC(C)(COP(=O)(O)OP(=O)(O)OC[C@H]1O[C@@H](n2cnc3c(N)ncnc32)[C@H](O)[C@@H]1OP(=O)(O)O)[C@@H](O)C(=O)NCCC(=O)NCCSC(=O)CCc1ccc(O)cc1 [p-hydroxyphenylpropionyl-CoA]	–
